Reference: patent publication US20120095055A1, “HEXAHYDROCYCLOPENTYL[f]INDAZOLE 5-HYDROXYMETHYL ETHANOLS AND DERIVATIVES THEREOF AS SELECTIVE GLUCOCORTICOID RECEPTOR MODULATORS” (Merck Sharp & Dohme, Corp., priority 2009, published 2012)

Target: T1, glucocorticoid receptor (GR) (Homo sapiens, UniProt P04150)
T1 construct: endogenous in cells; host or cells: HeLa (ATCC) cell lysate supernatant
T1 sequence (P04150 1-777): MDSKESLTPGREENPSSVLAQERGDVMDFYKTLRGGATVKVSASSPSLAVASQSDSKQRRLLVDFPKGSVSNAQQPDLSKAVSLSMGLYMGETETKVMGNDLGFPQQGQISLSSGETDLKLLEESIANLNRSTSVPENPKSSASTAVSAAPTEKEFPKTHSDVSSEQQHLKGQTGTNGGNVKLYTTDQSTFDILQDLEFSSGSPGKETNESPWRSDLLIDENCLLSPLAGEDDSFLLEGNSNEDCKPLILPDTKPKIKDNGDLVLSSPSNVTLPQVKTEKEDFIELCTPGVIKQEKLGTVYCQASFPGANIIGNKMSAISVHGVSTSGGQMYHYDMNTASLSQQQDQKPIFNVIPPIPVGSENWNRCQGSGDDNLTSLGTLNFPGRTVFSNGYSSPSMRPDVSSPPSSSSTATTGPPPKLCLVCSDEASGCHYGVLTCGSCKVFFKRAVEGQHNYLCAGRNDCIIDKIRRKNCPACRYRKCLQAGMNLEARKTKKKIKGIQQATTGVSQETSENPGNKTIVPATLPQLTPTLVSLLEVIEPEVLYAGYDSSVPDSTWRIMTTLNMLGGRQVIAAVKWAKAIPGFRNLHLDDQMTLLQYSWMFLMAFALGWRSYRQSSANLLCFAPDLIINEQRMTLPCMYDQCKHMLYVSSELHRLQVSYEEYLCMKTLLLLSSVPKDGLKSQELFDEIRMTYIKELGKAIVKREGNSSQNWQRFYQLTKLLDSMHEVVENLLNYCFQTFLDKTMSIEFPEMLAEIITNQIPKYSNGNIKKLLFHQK
Assay: GR Ligand Binding Assay (3H-dexamethasone displacement, HeLa cell lysate)
Details: 3H-DEX trace, DEX as reference, read-out: GR BIND Ki
Description: Binding Buffer: TEGM (10 mM Tris-HCl, 1 mM EDTA, 10% glycerol, 1 mM beta-mecaptoethanol, 10 mM Sodium Molybdate, pH 7.2)
Dexmethasone-methyl-^3H, (DEX*); (Amersham cat# TRK645) Dexamethasone(DEX) (Sigma, cat# D1756):
Cells (Hall R. E., et al., European Journal of Cancer, 30A: 484-490 (1994)) HeLa (ATCC) cultured in RPMI 1640 (Gibco 11835-055) containing 20 mM Hepes, 4 mM L-glu, 10 ug/ml of human insulin (Sigma, I-0259), 10% FBS and 20 ug/ml of Gentamicin (Gibco#15710-072) are rinsed twice in PBS. Phenol red-free Trypsin-EDTA is diluted in the same PBS 1:10. The cell layers are rinsed with 1× Trypsin, extra Trypsin is poured out, and the cell layers are incubated at 37° C. for ˜2 min. The flask is tapped and checked for signs of cell detachment. Once the cells begin to slide off the flask, the complete media is added. The cells are counted at this point, then diluted to the appropriate concentration and split into flasks or dishes for further culturing (Usually 1:3 to 1:6 dilution).
When the cells are 70 to 85% confluent, they are detached as described above, and collected by centrifuging at 1000 g for 10 minutes at 4° C. The cell pellet is washed twice with TEGM (10 mM Tris-HCl, 1 mM EDTA, 10% glycerol, 1 mM beta-mercaptoethanol, 10 mM Sodium Molybdate, pH 7.2). After the final wash, the cells are resuspended in TEGM at a concentration of 10^7 cells/mL. The cell suspension is snap frozen in liquid nitrogen or ethanol/dry ice bath and transferred to −80° C. freezer on dry ice. Before setting up the binding assay, the frozen samples are left on ice-water to just thaw (˜1 hr). Then the samples are centrifuged at 12,500 g to 20,000 g for 30 min at 4° C. The supernatant is used to set-up assay right away. If using 50 μL of supernatant, the test compound can be prepared in 50 μL of the TEGM buffer.
1×TEGM buffer is prepared, and the isotope-containing assay mixture is prepared in the following order: EtOH (2% final concentration in reaction), ^3H-DEX (Amersham Biosciences) and 1×TEGM. [e.g. For 100 samples, 200 μL (100×2) of EtOH+4.25 μL of 1:10 ^3H—Dex stock+2300 μL (100×23) 1×TEGM]. The compound is serially diluted, e.g., if starting final conc. is 1 μM, and the compound is in 25 μL of solution, for duplicate samples, 75 μL of 4×1 μM solution is made and 3 μL of 100 μM is added to 72 μL of buffer, and 1:5 serial dilution.
25 μL, of 3H-DEX (6 nM) trace and 25 μL compound solution are first mixed together, followed by addition of 50 μL receptor solution. The reaction is gently mixed, spun briefly at about 200 rpm and incubated at 4° C. overnight. 100 μL of 50% HAP slurry is prepared and added to the incubated reaction which is then vortexed and incubated on ice for 5 to 10 minutes. The reaction mixture is vortexed twice more to resuspend HAP while incubating reaction. The samples in 96-well format are then washed in wash buffer using The FilterMate™ Universal Harvester plate washer (Packard). The washing process transfers HAP pellet containing ligand-bound expressed receptor to Unifilter-96 GF/B filter plate (Packard). The HAP pellet on the filter plate is incubated with 50 μL of MICROSCINT (Packard) scintillint for 30 minutes before being counted on the TopCount microscintillation counter (Packard). IC50s are calculated using DEX as a reference.

Compound	Ki
C[C@]12Cc3cnn(-c4ccc(F)cc4)c3C=C1CC[C@@]2(CO)CC(O)c1cc(F)cc(F)c1 (stereo partly drawn) [Example 9, 1-(3,5-difluorophenyl)-2-[(4αS,5R)-1-(4-fluorophenyl)-5-(hydroxymethyl)-4α-methyl-1,4,4α,5,6,7-hexahydrocyclopenta[f]indazol-5-yl]ethanol]	2.1 nM
CC(O)(C[C@]1(CO)CCC2=Cc3c(cnn3-c3ccc(F)cc3)C[C@@]21C)c1cccnc1 (single isomer, unassigned) [Example 25a]	26.3 nM
C[C@]12Cc3cnn(-c4ccc(F)cc4)c3C=C1CC[C@@]2(CO)CC(O)c1ccccn1 (single isomer, unassigned) [Example 1a]	5.2 nM
COc1ccc(C(O)C[C@]2(CO)CCC3=Cc4c(cnn4-c4ccc(F)cc4)C[C@@]32C)nc1 (single isomer, unassigned) [Example 24a]	3.1 nM
C[C@]12Cc3cnn(-c4ccc(F)cc4)c3C=C1CC[C@@]2(CO)CC(O)c1ccccc1Cl (single isomer, unassigned) [Example 3a]	0.9 nM
C[C@]12Cc3cnn(-c4ccccc4)c3C=C1CC[C@@]2(CO)CC(O)c1cccnc1 (single isomer, unassigned) [Example 29b]	8.2 nM
C[C@]12Cc3cnn(-c4ccc(F)cc4)c3C=C1CC[C@@]2(CO)CC(O)c1cccc(C(F)(F)F)c1 (single isomer, unassigned) [Example 7b]	0.9 nM
COc1cccnc1C(O)C[C@]1(CO)CCC2=Cc3c(cnn3-c3cccc(F)c3)C[C@@]21C (single isomer, unassigned) [Example 26a]	8.6 nM
C[C@]12Cc3cnn(-c4ccc(F)cc4)c3C=C1CC[C@@]2(CO)CC(O)c1ccccc1 (single isomer, unassigned) [Example 13a]	2.5 nM
C[C@]12Cc3cnn(-c4ccc(F)cc4)c3C=C1CC[C@@]2(CO)CC(O)c1ccccc1F (stereo partly drawn) [Example 4, 1-(2-fluorophenyl)-2-[(4αS,5R)-1-(4-fluorophenyl)-5-(hydroxymethyl)-4α-methyl-1,4,4α,5,6,7-hexahydrocyclopenta[f]indazol-5-yl]ethanol]	0.9 nM
C[C@]12Cc3cnn(-c4ccccc4)c3C=C1CC[C@@]2(CO)CC(O)c1cccnc1 (single isomer, unassigned) [Example 29a]	11.8 nM
C[C@]12Cc3cnn(-c4ccc(F)cc4)c3C=C1CC[C@@]2(CO)CC(O)C1CCCCC1 (single isomer, unassigned) [Example 18a, 1-cyclohexyl-2-[(4αS)-1-(4-fluorophenyl)-5-(hydroxymethyl)-4α-methyl-1,4,4α,5,6,7-hexahydrocyclopenta[f]indazol-5-yl]ethanol]	1.7 nM
C[C@]12Cc3cnn(-c4cccc(F)c4)c3C=C1CC[C@@]2(CO)CC(O)c1cccnc1 (single isomer, unassigned) [Example 27a]	13.9 nM
C[C@]12Cc3cnn(-c4ccc(F)cc4)c3C=C1CC[C@@]2(CO)CC(O)c1cccc(Cl)c1 (stereo partly drawn) [Example 8, 1-(3-chlorophenyl)-2-[(4αS,5R)-1-(4-fluorophenyl)-5-(hydroxymethyl)-4α-methyl-1,4,4α,5,6,7-hexahydrocyclopenta[f]indazol-5-yl]ethanol]	1.2 nM

Further lines, results first:

Ki	Compound
14.1 nM	CC(C)C(O)C[C@]1(CO)CCC2=Cc3c(cnn3-c3ccc(F)cc3)C[C@@]21C (single isomer, unassigned) [Example 14b]
6.4 nM	CC(C)C(O)C[C@]1(CO)CCC2=Cc3c(cnn3-c3ccc(F)cc3)C[C@@]21C (single isomer, unassigned) [Example 14a]
0.9 nM	Cc1cccc(C(O)C[C@]2(CO)CCC3=Cc4c(cnn4-c4ccc(F)cc4)C[C@@]32C)c1 (single isomer, unassigned) [Example 5b]
2.2 nM	Cc1ccc(C(O)C[C@]2(CO)CCC3=Cc4c(cnn4-c4ccc(F)cc4)C[C@@]32C)cc1 (single isomer, unassigned) [Example 2a]
15.1 nM	C[C@]12Cc3cnn(-c4ccc(F)cc4)c3C=C1CC[C@@]2(CO)CC(O)C1CC1 (single isomer, unassigned) [Example 20b, 1-cyclopropyl-2-[(4αS)-1-(4-fluorophenyl)-5-(hydroxymethyl)-4α-methyl-1,4,4α,5,6,7-hexahydrocyclopenta[f]indazol-5-yl]ethanol]
8.3 nM	C[C@]12Cc3cnn(-c4ccc(F)cc4)c3C=C1CC[C@@]2(CO)CC(O)c1cccnc1 (single isomer, unassigned) [Example 15b]
2.3 nM	C[C@]12Cc3cnn(-c4ccc(F)cc4)c3C=C1CC[C@@]2(CO)CC(O)C1CCCCC1 (single isomer, unassigned) [Example 18b, 1-cyclohexyl-2-[(4αS)-1-(4-fluorophenyl)-5-(hydroxymethyl)-4α-methyl-1,4,4α,5,6,7-hexahydrocyclopenta[f]indazol-5-yl]ethanol]
